Data published in patent US20190270778A1, “Cyclic Peptides As C5a Receptor Antagonists” (priority 2016, published 2019).

Tests used:
[1] = target: T1, C5a receptor (Homo sapiens, UniProt P21730); assay: HWB CD11b expression assay (C5a-challenged granulocytes, flow cytometry); assay type: cell-based
T1 construct: endogenous in cells; host or cells: leukocytes/granulocytes in freshly drawn whole blood of healthy volunteers
T1 sequence (P21730 1-350): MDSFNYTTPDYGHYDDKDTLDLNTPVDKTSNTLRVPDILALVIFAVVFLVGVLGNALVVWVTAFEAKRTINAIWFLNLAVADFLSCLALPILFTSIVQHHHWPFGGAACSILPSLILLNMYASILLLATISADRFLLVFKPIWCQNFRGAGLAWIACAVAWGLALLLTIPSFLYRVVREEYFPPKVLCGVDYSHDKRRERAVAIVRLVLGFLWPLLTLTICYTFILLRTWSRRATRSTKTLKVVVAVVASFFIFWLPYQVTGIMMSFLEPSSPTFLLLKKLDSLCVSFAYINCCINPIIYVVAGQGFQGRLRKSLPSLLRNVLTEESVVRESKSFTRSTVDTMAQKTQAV
Procedure: HWB was collected from healthy, non-medicated volunteers into BD Vacutainer® blood collection tubes with K2EDTA as an anticoagulant. HWB was aliquoted (85 μL/well) in 96-well, deep-well, V-bottom plates and incubated at 37° C. for 30 minutes. Test compounds (5 μL/well) were added to HWB and incubated at 37° C. for 30 minutes. Anti-human CD11b antibody conjugated with APC (BD Biosciences) was added to HWB (5 μL/well) and incubated at 37° C. for additional 30 minutes. HWB was then challenged with human C5a (final 1 nM) for 30 minutes at 37° C. Samples were treated with warm 1× Lyse/Fix buffer (BD Biosciences) to terminate activation and further incubated at 37° C. for 20 minutes to lyse red blood cells. Assay plates were centrifuged at 300×g for 5 minutes, supernatant was aspirated, and cells were washed once with PBS containing 0.5% FBS. Washed cells were resuspended in PBS containing 0.5% FBS and subjected to flow cytometric analysis using an LSRFortessa equipped with a HTS plate loader (BD Biosciences). The granulocyte population was gated for analysis of MF of CD11b staining using FACSDiva version 6.2 (BD Biosciences). Data from 11 compound concentrations (singlicate at each concentration) was normalized as a percentage of control based on the formula:
% of Control=100×(A−B)/(C−B)
where A is MF from wells containing test compound and C5a, B is MF from wells without C5a (background MF from unstimulated samples) and C is MF from wells containing only C5a (maximum MF). Inhibition curves and IC50 values (test compound concentrations which produce 50% inhibition) were determined using the Prism version 5 software (GraphPad). HWB was also stimulated with 11 different concentrations of C5a to construct a responsive curve and to obtain EC50 value (the concentration of C5a that gives half-maximal response) and curve slope using the Prism version 5 software. Kb (nM) was then calculated using the equation described by Leff and Dougal (TIPS 1993 14:110-112).

[2] = target: T1, C5a receptor; assay: HWB oxidative burst assay (C5a-induced, luminol chemiluminescence); assay type: cell-based
Procedure: Inhibition of oxidative burst activity was determined in HWB primed with TNF-α and stimulated with C5a. C5a-induced oxidative burst response (generation of reactive oxygen species) was then detected in the presence of luminol as a chemiluminescent signal.
On the day of assay, HWB was collected from a healthy, non-medicated volunteer into tubes containing 3.8% sodium citrate (final sodium citrate concentration in HWB is 0.38%) and stored in a 37° C. water bath until use (no longer than 60 minutes).
To start the assay, TNF-α was added to HWB to a final concentration of 1.0 nM and 68 μL of this HWB/TNF-α mix was transferred to each well of a 384-well white Optiplate (assay plate). 4.0 μL of various concentrations of test agent were then added to the assay plate and mixed twice gently by aspirating up and down. The assay plate was then placed on a thermoshaker (JITTERBUG-4) and incubated at 37° C. (without shaking). After 60 minutes, C5a (Complement Technology) prepared in luminol (Sigma) was added to the assay plate and mixed twice gently by aspirating up and down. The plate was then placed in a ViewLux 1430 Microplate Imager (Perkin Elmer). After 5 minutes, oxidative burst activity was determined with the ViewLux by measuring luminol-enhanced whole blood chemiluminescence. Final assay conditions were 1.5 mM HEPES pH 7.5, 0.015% BSA, 15% HBSS, 0.85 ng/mL TNFα, 1.0 mM Luminol, C5a 20 nM, 76.5% HWB, 0.15% DMSO and various concentrations of test agent.
The percent (%) effect at each concentration of test agent was then calculated based on and relative to the amount of signal that was produced by positive (i.e. full inhibition of C5a induced oxidative burst) and negative (i.e. completely uninhibited C5a induced oxidative burst) control wells contained within each assay plate. The concentration and % effect values for test agents were plotted and the concentration of test agent required for 50% effect (IC50) was determined with a four-parameter logistic dose response equation (BioBook; IDBS). Kb (nM) was then calculated (BioBook; IDBS) using the equation described by Leff and Dougal (TIPS 1993 14:110-112).

[3] = the molecule shown is the open-chain precursor; amide bond; 18-membered ring

Compound	Kb [1]	Kb [2]	ring closure, crude yield [3]
N=C(N)NCCC[C@@H]1NC(=O)[C@H](Cc2c[nH]c3ncccc23)NC(=O)[C@@H](C[C@H]2CC[C@@H](O)CC2)NC(=O)[C@@H]2C[C@@H](O)CN2C(=O)[C@@H](NC(=O)[C@H](Cc2ccccc2)NCC(=O)O)CCCNC1=O [Example 6, ((S)-1-(((3R,6S,9S,15S,19R,20aS)-6-((1H-pyrrolo[2,3-b]pyridin-3-yl)methyl)-9-(3-guanidinopropyl)-19-hydroxy-3-(((1s,4S)-4-hydroxycyclohexyl)methyl)-1,4,7,10,16-pentaoxoicosahydropyrrolo[1,2-a][1,4,7,10,13]pentaazacyclooctadecin-15-yl)amino)-1-oxo-3-phenylpropan-2-yl)glycine]	460 nM	68.1 nM	–
N=C(N)NCCC[C@@H]1NC(=O)[C@H](Cc2c[nH]c3ccccc23)NC(=O)[C@@H](C[C@H]2CC[C@@H](O)CC2)NC(=O)[C@@H]2C[C@H](N)CN2C(=O)[C@@H](NC(=O)[C@H](Cc2ccccc2)NCC(=O)O)CCCNC1=O [Example 7, ((S)-1-(((3R,6S,9S,15S,19S,20aS)-6-((1H-indol-3-yl)methyl)-19-amino-9-(3-guanidinopropyl)-3-(((1s,4S)-4-hydroxycyclohexyl)methyl)-1,4,7,10,16-pentaoxoicosahydropyrrolo[1,2-a][1,4,7,10,13]pentaazacyclooctadecin-15-yl)amino)-1-oxo-3-phenylpropan-2-yl)glycine]	10.9 nM	1.8 nM	–
N=C(N)NCCC[C@@H]1NC(=O)[C@H](Cc2c[nH]c3ccccc23)NC(=O)[C@@H](C[C@H]2CC[C@@H](O)CC2)NC(=O)[C@@H]2C[C@@H](N)CN2C(=O)[C@@H](NC(=O)[C@H](Cc2ccccc2)NCC(=O)O)CCCNC1=O [Example 8, ((S)-1-(((3R,6S,9S,15S,19R,20aS)-6-((1H-indol-3-yl)methyl)-19-amino-9-(3-guanidinopropyl)-3-(((1s,4S)-4-hydroxycyclohexyl)methyl)-1,4,7,10,16-pentaoxoicosahydropyrrolo[1,2-a][1,4,7,10,13]pentaazacyclooctadecin-15-yl)amino)-1-oxo-3-phenylpropan-2-yl)glycine]	19.8 nM	4 nM	–
CC(=O)N[C@@H]1C[C@H]2C(=O)N[C@H](C[C@H]3CC[C@@H](O)CC3)C(=O)N[C@@H](Cc3c[nH]c4ccccc34)C(=O)N[C@@H](CCCNC(=N)N)C(=O)NCCC[C@H](NC(=O)[C@H](Cc3ccccc3)NCC(=O)O)C(=O)N2C1 [Example 9, ((S)-1-(((3R,6S,9S,15S,19R,20aS)-6-((1H-indol-3-yl)methyl)-19-acetamido-9-(3-guanidinopropyl)-3-(((1s,4S)-4-hydroxycyclohexyl)methyl)-1,4,7,10,16-pentaoxoicosahydropyrrolo[1,2-a][1,4,7,10,13]pentaazacyclooctadecin-15-yl)amino)-1-oxo-3-phenylpropan-2-yl)glycine]	32.6 nM	1 nM	–
CC(=O)N[C@H]1C[C@H]2C(=O)N[C@H](C[C@H]3CC[C@@H](O)CC3)C(=O)N[C@@H](Cc3c[nH]c4ccccc34)C(=O)N[C@@H](CCCNC(=N)N)C(=O)NCCC[C@H](NC(=O)[C@H](Cc3ccccc3)NCC(=O)O)C(=O)N2C1 [Example 10, ((S)-1-(((3R,6S,9S,15S,19S,20aS)-6-((1H-indol-3-yl)methyl)-19-acetamido-9-(3-guanidinopropyl)-3-(((1s,4S)-4-hydroxycyclohexyl)methyl)-1,4,7,10,16-pentaoxoicosahydropyrrolo[1,2-a][1,4,7,10,13]pentaazacyclooctadecin-15-yl)amino)-1-oxo-3-phenylpropan-2-yl)glycine]	11.7 nM	2.1 nM	–
N=C(N)NCCC[C@@H]1NC(=O)[C@H](Cc2c[nH]c3ccccc23)NC(=O)[C@@H](C[C@H]2CC[C@@H](O)CC2)NC(=O)[C@@H]2C[C@H](NCC(=O)O)CN2C(=O)[C@@H](NC(=O)[C@H](Cc2ccccc2)NCC(=O)O)CCCNC1=O [Example 12, ((31R,6S,9S,15S,19S,20aS)-6-((1H-indol-3-yl)methyl)-15-((S)-2-((carboxymethyl)amino)-3-phenylpropanamido)-9-(3-guanidinopropyl)-3-(((1s,4S)-4-hydroxycyclohexyl)methyl)-1,4,7,10,16-pentaoxoicosahydropyrrolo[1,2-a][1,4,7,10,13]pentaazacyclooctadecin-19-yl)glycine]	32.6 nM	1.3 nM	–
N=C(N)NCCC[C@@H]1NC(=O)[C@H](Cc2n[nH]c3ccccc23)NC(=O)[C@@H](C[C@H]2CC[C@@H](O)CC2)NC(=O)[C@@H]2C[C@@H](O)CN2C(=O)[C@@H](NC(=O)[C@H](Cc2ccccc2)NCC(=O)O)CCCNC1=O [Example 16, ((S)-1-(((31R,6S,9S,15S,19R,20aS)-6-((1H-indazol-3-yl)methyl)-9-(3-guanidinopropyl)-19-hydroxy-3-(((1s,4S)-4-hydroxycyclohexyl)methyl)-1,4,7,10,16-pentaoxoicosahydropyrrolo[1,2-a][1,4,7,10,13]pentaazacyclooctadecin-15-yl)amino)-1-oxo-3-phenylpropan-2-yl)glycine]	75.2 nM	6.5 nM	–
CCc1ccc2c(C[C@@H]3NC(=O)[C@@H](C[C@H]4CC[C@@H](O)CC4)NC(=O)[C@@H]4C[C@@H](O)CN4C(=O)[C@@H](NC(=O)[C@H](Cc4ccccc4)NCC(=O)O)CCCNC(=O)[C@H](CCCNC(=N)N)NC3=O)c[nH]c2c1 [Example 17, ((S)-1-(((31R,6S,9S,15S,19R,20aS)-6-((6-ethyl-1H-indol-3-yl)methyl)-9-(3-guanidinopropyl)-19-hydroxy-3-(((1s,4S)-4-hydroxycyclohexyl)methyl)-1,4,7,10,16-pentaoxoicosahydropyrrolo[1,2-a][1,4,7,10,13]pentaazacyclooctadecin-15-yl)amino)-1-oxo-3-phenylpropan-2-yl)glycine]	234 nM	29.7 nM	–
H-Hyp(CH2CO2tBu)-dAla(3-(cis-4-hydroxycyclohexyl))-Trp(Boc)-Arg(Pbf)-Orn(Nα-[Boc-N(CH2CO2tBu)-Phe]; chain through Nδ)-OH?	–	–	83%
H-Hyp(tBu)-dAla(3-(cis-4-hydroxycyclohexyl))-Ala(3-(1-Boc-1H-pyrrolo[2,3-b]pyridin-3-yl))-Arg(Pbf)-Orn(Nα-[Boc-N(CH2CO2tBu)-Phe]; chain through Nδ)-OH	–	–	100%
H-Hyp(tBu)-dAla(3-(cis-4-hydroxycyclohexyl))-Ala(3-(4-methyl-1H-pyrazol-1-yl))-Arg(Pbf)-Orn(Nα-[Boc-N(CH2CO2tBu)-Phe]; chain through Nδ)-OH	–	–	48%
H-Hyp(tBu)-dAla(3-(cis-4-hydroxycyclohexyl))-Trp(Boc)-Arg(Pbf)-Orn(Nα-[N-(CH2CO2tBu)-MePhe]; chain through Nδ)-OH	–	–	100%
H-Pro((4S)-N(Boc)CH2CO2tBu)-dAla(3-(cis-4-hydroxycyclohexyl))-Trp(Boc)-Arg(Pbf)-Orn(Nα-[Boc-N(CH2CO2tBu)-Phe]; chain through Nδ)-OH	–	–	100%
